{"source": "paper PMC5795001", "about": "“The activity of the C4-dicarboxylic acid chemoreceptor of Pseudomonas aeruginosa is controlled by chemoattractants and antagonists” (Scientific Reports, 2018)", "key": {"[1]": {"system": "Pseudomonas aeruginosa PAO1 cheA2 mutant", "test": "Capillary chemotaxis assay, cheA2 mutant", "assay_type": "cell-based", "conditions": "10 mM L-malic acid", "protocol": "(§1) A recent bioinformatic study has predicted that PA2652 signals through the che pathway. To verify this prediction we conducted chemotaxis assays to L-malic acid using the wt strain as well as mutants in cheA1 and cheA2, encoding respectively the histidine kinases of the che and che2 pathways.\n(§2) Overnight cultures of P. aeruginosa strains were diluted to an OD660 of 0.05 in MS medium (30 mM Na2HPO4, 20 mM KH2PO4, 25 mM NH4NO3, 1 mM MgSO4) supplemented with 6 mg l^−1 Fe-citrate, trace elements[81] and 15 mM glucose as carbon source, and grown at 37 °C with orbital shaking (200 rpm). At an OD660 of 0.4 ([…]) cultures were centrifuged at 1,700 × g for 5 min and the resulting pellet was washed twice with chemotaxis buffer (50 mM potassium phosphate, […], 0.05% (v/v) glycerol, pH 7.0). Subsequently, the cells were resuspended in the same buffer, adjusted to an OD660 of 0.1 and 230 µl aliquots of the bacterial cultures were placed into 96-well plates. For the quantitative assays, one-microliter capillary tubes (Microcaps, Drummond Scientific, Ref. P1424) were heat-sealed at one end and filled with either the chemotaxis buffer (negative control) or chemotaxis buffer containing the chemoeffectors to test. The capillaries were immersed into the bacterial suspensions at its open end. […] The number of colony forming units was determined after overnight incubation. […]"}, "[2]": {"system": "Pseudomonas aeruginosa PAO1 cheA1 mutant", "test": "Capillary chemotaxis assay, cheA1 mutant", "assay_type": "cell-based", "conditions": "10 mM L-malic acid", "protocol": "as §1, §2"}, "PA2652-LBD [3]": {"biological_target": "T1, PA2652-LBD (Pseudomonas aeruginosa, UniProt Q9I0I6)", "T1 construct": "The DNA fragment encoding the LBD of PA2652 (Lys^34–Thr^205) was amplified; His-tag (vector-encoded by pET28b(+) via NdeI site); made in house; host or cells: Escherichia coli BL21 (DE3)", "T1 sequence (Q9I0I6 34-205)": "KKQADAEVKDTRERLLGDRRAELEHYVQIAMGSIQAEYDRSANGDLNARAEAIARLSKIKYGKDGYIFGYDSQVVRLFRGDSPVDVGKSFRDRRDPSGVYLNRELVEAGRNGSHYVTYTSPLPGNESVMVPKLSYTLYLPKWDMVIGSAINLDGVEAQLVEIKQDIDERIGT", "assay_type": "binding, Pseudomonas aeruginosa PAO1", "conditions": "DSF screening as described in text; 2 °C threshold for significant hits", "description": "To identify ligands that may bind to the LBD of PA2652, we conducted Differential Scanning Fluorimetry (DSF) based high throughput ligand screening assays as described previously[37],[38]. DSF analyses permit the determination of melting temperature (Tm) values, which corresponds to the temperature at which half the protein is in its native conformation whereas the remaining half has undergone thermal unfolding. Since ligand binding typically enhances the thermal stability of proteins, increases in the Tm in the presence of ligands may be indicative of specific binding. We screened 450 different compounds available in five different ligand arrays from Biolog (Supplementary Fig. S3). The screened collection included different carbon and nitrogen sources, phosphorous and sulfurous compounds as well as different nutrient supplements.\nThermal shift assays were performed on a MyIQ2 Real-Time PCR instrument (BioRad). Ligands from the different compound arrays (Biolog, Hayward, CA, USA; see Supplementary Fig. S3) were dissolved in 50 μl of MilliQ water, which, according to the manufacturer, corresponds to a concentration of 10–20 mM. Screening was performed using 96 wells plates. Each well contained 20 μM of protein dialyzed into TNG buffer (20 mM Tris/HCl, 150 mM NaCl, 10% (v/v) glycerol, pH 6.7), 2.5 μl of the resuspended compounds and SYPRO Orange (Life Technologies) at 5× concentration. In a single well (ligand free protein) the compound was substituted by water. Samples were heated from 23 °C to 85 °C at a scan rate of 1 °C/min. The protein unfolding curves were obtained by following the changes in SYPRO Orange fluorescence. Melting temperatures were determined using the first derivative values from the raw fluorescence data."}, "PA2652-LBD [4]": {"biological_target": "T1, PA2652-LBD", "test": "Sedimentation velocity analytical ultracentrifugation", "set-up": "species or system Pseudomonas aeruginosa PAO1", "conditions": "1 mM L-malic acid, protein 5-20 µM, 7 °C, PIPES buffer", "protocol": "To address this issue, PA2652-LBD was analysed by sedimentation velocity analytical ultracentrifugation (AUC). Initial experiments were conducted using concentrations of ligand-free protein ranging from 5 to 20 µM. […] The molecular weight extracted from the sedimentation coefficient and the shape was of 41 kDa. Considering that the sequence-derived mass of the PA2652-LBD monomer is 21.5 kDa, the observed species is clearly a protein dimer. Since no shift to higher sedimentation coefficients was measured with increasing protein concentrations (data not shown), the dimer species can be considered stable over the protein concentration range analysed. The above experiments were also performed in the presence of saturating concentrations of L-malic acid.\nExperiments were performed on a Beckman Coulter Optima XL-A analytical ultracentrifuge (Beckman-Coulter, Palo Alto, CA, USA) equipped with UV-visible absorbance detection system, using an An50Ti 8-hole rotor and 12 mm path-length charcoal-filled epon double-sector centrepieces. […] Light at a wavelength of 234 nm was recorded in the absorbance optics mode. […] Buffer density (ρ = 1.0015 g/mL) and viscosity (η = 0.01449 Poise) at 7 °C were calculated from the buffer composition using SEDNTERP software. […]"}}, "note": "Entries after “also recorded” stand apart in the source; their conditions may differ."}
{"smiles": "O=C(O)C[C@H](O)C(=O)O", "note": "[L-malic acid]", "values": [{"measurement": "Chemotaxis in cheA2 mutant", "setting": "[1]", "value": "almost identical to that of wt strain; also recorded: indistinguishable from that of the wt"}, {"measurement": "Chemotaxis in cheA1 mutant", "setting": "[2]", "value": "abolished chemotaxis; also recorded: no response was observed"}, {"measurement": "Tm increases", "setting": "PA2652-LBD [3]", "value": "more than 2 °C"}, {"measurement": "Effect of ligand binding on oligomerization state of PA2652-LBD", "setting": "PA2652-LBD [4]", "value": "does not have any significant effects on the oligomerization state"}]}
